Measured values reported in patent US20070275990A1, “Heterocyclic Spiro Compound” (ONO PHARMACEUTICAL CO., LTD., priority 2003, published 2007).

What was measured:
MBR = molecular target: T1, MBR (Rattus norvegicus, UniProt P16257); test: Receptor binding experiment ([3H]PK11195 competition binding); details: rat brain membrane preparation, [3H]PK11195 0.5 or 1 nmol/L; Ki calculated by Cheng and Prusoff formula from KD value and IC50
T1 construct: from tissue; host or cells: whole brain without cerebellum of male Wistar rats, crude membrane preparation
Method: The affinity of the compounds in the present invention to MBR was determined using rat brain membrane preparation. In addition, the measurement in the present invention was improved the accuracy of measurement and the sensitivity of measurement for evaluating the compounds in the present invention as follows. After male Wister rats were decapitated to extirpate the whole brain and cerebellums were removed. They were homogenized in ice-cold 50 mmol/L Tris-HCL buffer solution (pH 7.4), centrifuged and the obtained pellets were washed. The pellets resuspended and adjusted to about 1 mg/mL were used as rat brain membrane preparations for binding assay. The binding assay were experimented using [^3H]PK11195 as a MBR selective ligand. […]
To determine the amount of total binding in saturation binding experiment, membrane preparations, various concentrations of [^3H]PK11195, final concentration: 0.5 vol % dimethylsulfoxide (DMSO) and 50 mmol/L Tris-HCL buffer solution (pH 7.4) were mixed (total volume 200 μL) and were incubated for 1 hour at room temperature. […] The filter was dried and then the radioactivity on the filter was measured by liquid scintillation counter. The data obtained by the binding experiments were Scatchard analyzed using analysis software, KELL (Ver. 6, BIOSOFT) and the dissociation constant (KD value) was determined. […]

male Wistar rats = test: Evaluation of anti-stress effects (defecation under psychological stress); assay type: in vivo, rat; details: 10 mg/kg orally 30 minutes before stressor load; counted 1 hour later; media treated group average 8.7 feces
Method: Psychological stress was loaded to male Wistar rats (Brain research, 641, 21-28, 1994). Water was stored up to the depth of about 10 cm in a container where the platform was set at the center. A stressor began to load to rats 30 minutes after the vehicle or the compound in the present invention (the compound of Example 15(39)) were orally administered by dosage of 10 mg/kg. The number of defecation was counted 1 hour later (10 per each group). Rats without administration and load of stressor rarely defecated for 1 hour. In contrast, remarkable defecation was admitted in media treated group (average 8.7 feces) loaded by stressor. […] The results clarified that the compounds in the present invention had anti-stress effects.

SMILES	Ki (MBR)	number of defecation (average) (male Wistar rats)
O=C1N(c2ccccc2)CCC12CCCN(S(=O)(=O)c1ccccc1)C2 (stereo not drawn) [Example 7, 2-phenyl-7-(phenylsulfonyl)-2,7-diazaspiro[4.5]decan-1-one]	230 nM	
COc1ccc(S(=O)(=O)N2CCCC3(CCN(c4ccc(Cl)cc4)C3=O)C2)cc1 (stereo not drawn) [Example 15(39), 2-(4-chlorophenyl)-7-[(4-methoxyphenyl)sulfonyl]-2,7-diazaspiro[4.5]decan-1-one]	40 nM	5.8 feces
